The nature of series [1]: Aqueous solubility of compound. It counts as physicochemical. The note with it: buffer.
Series [2] concerns Hepatitis C virus. Briefly: Antiviral activity against HCV 1b in Huh-7/2209-23 cells by replicon assay. In kind it is functional, organism-based, Hepacivirus hominis. To be noted: genotype 1b. (A replicon is a self-replicating genome or part of one, used to study replication in cells.)
For series [3], the system named is Hepatitis C virus. Briefly: Inhibition of HCV 1b NS5B polymerase. Further details: species or system Hepatitis C virus subtype 1b.

As usually defined, the solubility is the dissolved amount per volume that the medium holds. What is called IC50 is the concentration that inhibits the measured activity by half. Low readings indicate higher potency, high ones lower potency.

≈ marks a conversion by molar mass, not a printed value.

For `O=S1(=O)N=C(c2nc(CCC3CC3)c3ccccc3c2O)c2ccccc21`, in series [1], the solubility came out at 10 µg/mL (≈ 26.4 µM). In addition, the IC50 stood at 2700 nM in series [2] and 1000 nM in series [3].

As to `CC(C)CCc1nc(C2=NS(=O)(=O)c3ccccc3N2)c(O)c2ccccc12`, it took 51000 nM to reach half-maximal inhibition in series [3] (IC50).

In series [1], `CC(=O)Nc1cccc(-c2cccc3c2S(=O)(=O)N=C3c2nc(Cc3ccc(F)cc3)c3ccccc3c2O)c1` returned a solubility of 17 µg/mL (≈ 30.8 µM). In addition, the IC50 in series [2] was 940 nM; in series [3], 530 nM.

With `O=S1(=O)N=C(c2nc(Cc3ccc(F)cc3)c3ccccc3c2O)c2cccc(-c3cccnc3)c21`, in series [1], the concentration in solution (solubility) came to 3 µg/mL (≈ 6.05 µM). Besides, the IC50 in series [2] came to 150 nM; in series [3], 550 nM.

Regarding `O=S1(=O)N=C(c2nc(Cc3ccc(F)cc3)c3ccccc3c2O)c2cccc(Cl)c21`, in series [1], the concentration in solution (solubility) came to 2 µg/mL (≈ 4.42 µM). Besides, the IC50 was determined as 430 nM in series [2] and 580 nM in series [3].

In series [3], `O=S1(=O)N=C(c2nc(Cc3ccccc3)c3ccccc3c2O)Nc2ccccc21` registered an IC50 of 47000 nM. That is a double-digit micromolar value.

`O=S1(=O)N=C(c2nc(Cc3ccc(F)cc3)c3ccccc3c2O)c2cccc(-c3ccccc3)c21`: in series [1], the concentration in solution (solubility) was 41 µg/mL (≈ 82.9 µM). The values for the IC50 in series [2] and in series [3] were 800 nM and 3900 nM, respectively.

In series [1], `O=c1ccc(-c2cccc3c2S(=O)(=O)N=C3c2nc(Cc3ccc(F)cc3)c3ccccc3c2O)c[nH]1` showed a solubility of 7 µg/mL (≈ 13.7 µM). For the same compound, the IC50 turned out to be 75 nM in series [2] and 410 nM in series [3].

On to `CC(C)CCc1nc(C2=NS(=O)(=O)c3ccccc32)c(O)c2ccccc12`, for which, in series [3], it took 4500 nM to reach half-maximal inhibition (IC50).

`O=c1cccc(-c2cccc3c2S(=O)(=O)N=C3c2nc(Cc3ccc(F)cc3)c3ccccc3c2O)[nH]1` registered a solubility in series [1] of 6 µg/mL (≈ 11.7 µM). For the same compound, the IC50 in series [2] came out at 400 nM; in series [3], 730 nM.

In the case of `O=S1(=O)N=C(c2nc(Cc3ccc(F)cc3)c3ccccc3c2O)c2cccc(-c3cn[nH]c3)c21`, the values for the IC50 in series [2] and in series [3] were 780 nM and 720 nM, respectively.

As for `O=S1(=O)N=C(c2nc(Cc3ccc(F)cc3)c3ccccc3c2O)c2ccccc21`, the concentration in solution in series [1] (solubility) came to 16 µg/mL (≈ 38.2 µM). Further, the IC50 in series [2] turned out to be 440 nM.

`O=S1(=O)N=C(c2nc(Cc3ccc(F)cc3)c3ccccc3c2O)c2cccc(-c3cccc(O)c3)c21` returned a solubility in series [1] of 3 µg/mL (≈ 5.88 µM). The IC50 stood at 1100 nM in series [2] and 350 nM in series [3].

Turning to `O=S1(=O)N=C(c2nc(Cc3ccc(F)cc3)c3ccccc3c2O)c2cccc(-c3cncnc3)c21`, the solubility in series [1] was found to be 9 µg/mL (≈ 18.1 µM). The figures for the IC50 in series [2] and in series [3] were 380 nM and 1800 nM, respectively.

`COc1cccc2c1S(=O)(=O)N=C2c1nc(Cc2ccc(F)cc2)c2ccccc2c1O` gave a solubility in series [1] of 40 µg/mL (≈ 89.2 µM). Besides, the IC50 is 760 nM in series [2] and 610 nM in series [3].
